Earlier results, collected in patent US20110244050A1, “PULSED-RELEASE SILDENAFIL COMPOSITION AND METHOD FOR PREPARING SAID COMPOSITION” (SIEGFRIED RHEIN S.A. DE C.V., priority 2008, published 2011).

Legend:
[1] = in vivo

- solubility in acidic media (acidic media, like in the stomach): adequate
- solubility in alkaline media (alkaline media, like that found in the intestine): decreases markedly
- plasmatic elimination half-life [1]: about 4 hours
SMILES: CCCc1nn(C)c2c(=O)[nH]c(-c3cc(S(=O)(=O)N4CCN(C)CC4)ccc3OCC)nc12 [sildenafil]
